Test results: EP3755703B1, “N-(PHENYL)-2-(PHENYL)PYRIMIDINE-4-CARBOXAMIDE DERIVATIVES AND RELATED COMPOUNDS AS HPK1 INHIBITORS FOR TREATING CANCER” (Incyte Corporation, priority 2018, dated 2019)

Each molecule was assayed against T1, HPK1 (Homo sapiens, UniProt Q92918) (assay: HPK1 Kinase Binding Assay). Settings: LanthaScreen tracer 222, one hour incubation at 25 °C.
T1 construct: purchased SignalChem M23-11G
T1 sequence (Q92918 1-346 limits assumed): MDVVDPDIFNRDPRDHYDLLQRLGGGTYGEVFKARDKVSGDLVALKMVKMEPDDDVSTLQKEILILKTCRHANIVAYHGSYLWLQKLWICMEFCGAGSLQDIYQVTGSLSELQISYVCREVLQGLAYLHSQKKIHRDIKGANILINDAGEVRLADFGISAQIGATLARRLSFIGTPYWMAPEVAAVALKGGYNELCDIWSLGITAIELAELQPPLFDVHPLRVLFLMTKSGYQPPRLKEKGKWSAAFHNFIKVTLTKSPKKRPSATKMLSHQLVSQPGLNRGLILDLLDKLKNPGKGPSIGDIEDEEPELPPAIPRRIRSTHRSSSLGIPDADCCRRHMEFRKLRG
Protocol: A stock solution of 1 mM test compound was prepared in DMSO. The compound plate was prepared by 3-fold and 11-point serial dilutions. 0.1 µL of the compound in DMSO was transferred from the compound plate to the white 384 well polystyrene plates. The assay buffer contained 50 mM HEPES, pH 7.5, 0.01% Tween-20, 5 mM MgCl2, 0.01% BSA, and 5 mM DTT. 5 µL of 4 nM active HPK1 (SignalChem M23-11G) prepared in the buffer was added to the plate. The enzyme concentration given was based on the given stock concentration reported by the vender. […] After one hour incubation at 25 °C, the plates were read on a PHERAstar FS plate reader (BMG Labtech). Ki values were determined.
`COc1cccc(F)c1-c1nccc(C(=O)Nc2ccc(-c3cnccc3C#N)cc2N2C[C@@H](N)C[C@H]2C(C)(C)O)n1` [Example 54, N-(2-((2S,4S)-4-Amino-2-(2-hydroxypropan-2-yl)pyrrolidin-1-yl)-4-(4-cyanopyridin-3-yl)phenyl)-2-(2-fluoro-6-methoxyphenyl)pyrimidine-4-carboxamide] was tested, and the Ki was less than 100 nM.
`COc1cccc(F)c1-c1nccc(C(=O)Nc2ccc(-c3cnccc3C#N)cc2N2[C@@H]3CN[C@@H](C3)[C@@H]2CO)n1` [Example 56, N-(4-(4-Cyanopyridin-3-yl)-2-((1S,3R,4S)-3-(hydroxymethyl)-2,5-diazabicyclo [2.2.1]heptan-2-yl)phenyl)-2-(2-fluoro-6-methoxyphenyl)pyrimidine-4-carboxamide] was tested, and the Ki was less than 100 nM.
In the case of `COc1cccc(F)c1-c1nccc(C(=O)Nc2ccc(-c3cnccc3C#N)cc2N2C[C@@H]3C[C@@]2(CO)CN3)n1` [Example 57, N-(4-(4-Cyanopyridin-3-yl)-2-((1S,4S)-1-(hydroxymethyl)-2,5-diazabicyclo[2.2.1]heptan-2-yl)phenyl)-2-(2-fluoro-6-methoxyphenyl)pyrimidine-4-carboxamide], the Ki is reported as less than 100 nM.
Work on `COc1cccc(F)c1-c1nccc(C(=O)Nc2ccc(-c3cnccc3C#N)cc2N2CC[C@H](N)C[C@@H]2C)n1` [Example 58, N-(2-((2S,4S)-4-Amino-2-methylpiperidin-1-yl)-4-(4-cyanopyridin-3-yl)phenyl)-2-(2-fluoro-6-methoxyphenyl)pyrimidine-4-carboxamide] yielded a Ki of less than 100 nM.
For `COc1cccc(F)c1-c1cccc(C(=O)Nc2ccc(-c3cnccc3C#N)cc2N2C[C@@H](N)C[C@H]2CO)n1` [Example 59, N-(2-((2S,4S)-4-Amino-2-(hydroxymethyl)pyrrolidin-1-yl)-4-(4-cyanopyridin-3-yl)phenyl)-6-(2-fluoro-6-methoxyphenyl)picolinamide], the Ki was less than 100 nM.
With `COc1cccc(F)c1-c1nc(C(=O)Nc2ccc(-c3cnccc3C#N)cc2N2C[C@@H](N)C[C@H]2CO)ccc1C#N` [Example 60, N-(2-((2S,4S)-4-Amino-2-(hydroxymethyl)pyrrolidin-1-yl)-4-(4-cyanopyridin-3-yl)phenyl)-5-cyano-6-(2-fluoro-6-methoxyphenyl)picolinamide] the Ki was less than 100 nM.
Work on `COc1ccc(C(=O)Nc2ccc(-c3cnccc3C#N)cc2N2C[C@@H](N)C[C@H]2CO)nc1-c1c(F)cccc1OC` [Example 61, N-(2-((2S,4S)-4-Amino-2-(hydroxymethyl)pyrrolidin-1-yl)-4-(4-cyanopyridin-3-yl)phenyl)-6-(2-fluoro-6-methoxyphenyl)-5-methoxypicolinamide] yielded a Ki of 100 to 500 nM.
Molecule `N#Cc1ccncc1-c1ccc(NC(=O)c2ccnc(-c3c(F)cccc3F)n2)c(N2C[C@@H](N)C[C@H]2CO)c1` [Example 62, N-(2-((2S,4S)-4-Amino-2-(hydroxymethyl)pyrrolidin-1-yl)-4-(4-cyanopyridin-3-yl)phenyl)-2-(2,6-difluorophenyl)pyrimidine-4-carboxamide] has a Ki of less than 100 nM.
`Cc1cccc(F)c1-c1nccc(C(=O)Nc2ccc(-c3cnccc3C#N)cc2N2C[C@@H](N)C[C@H]2CO)n1` [Example 63, N-(2-((2S,4S)-4-Amino-2-(hydroxymethyl)pyrrolidin-1-yl)-4-(4-cyanopyridin-3-yl)phenyl)-2-(2-fluoro-6-methylphenyl)pyrimidine-4-carboxamide] gave a Ki of less than 100 nM.
`N#Cc1ccncc1-c1ccc(NC(=O)c2ccnc(-c3c(F)cccc3Cl)n2)c(N2C[C@@H](N)C[C@H]2CO)c1` [Example 64, N-(2-((2S,4S)-4-Amino-2-(hydroxymethyl)pyrrolidin-1-yl)-4-(4-cyanopyridin-3-yl)phenyl)-2-(2-chloro-6-fluorophenyl)pyrimidine-4-carboxamide] showed a Ki of less than 100 nM.
`COc1cccc(F)c1-c1nccc(C(=O)Nc2ccc(-c3c(C)nn(C)c3C)nc2N2C[C@@H](N)C[C@H]2CO)n1` [Example 65, N-(2-((2S,4S)-4-Amino-2-(hydroxymethyl)pyrrolidin-1-yl)-6-(1,3,5-trimethyl-1H-pyrazol-4-yl)pyridin-3-yl)-2-(2-fluoro-6-methoxyphenyl)pyrimidine-4-carboxamide] showed a Ki of less than 100 nM.
Work on `N[C@H]1C[C@@H](CO)N(c2ccc(F)cc2NC(=O)c2ccnc(-c3c(F)cccc3F)n2)C1` [Example 66, N-(2-((2S,4S)-4-Amino-2-(hydroxymethyl)pyrrolidin-1-yl)-5-fluorophenyl)-2-(2,6-difluorophenyl)pyrimidine-4-carboxamide] yielded a Ki of less than 100 nM.
Molecule `COc1ccc(C#N)c(F)c1-c1nccc(C(=O)Nc2cc(F)ccc2N2C[C@@H](N)C[C@H]2CO)n1` [Example 67, N-(2-((2S,4S)-4-Amino-2-(hydroxymethyl)pyrrolidin-1-yl)-5-fluorophenyl)-2-(3-cyano-2-fluoro-6-methoxyphenyl)pyrimidine-4-carboxamide] has a Ki of less than 100 nM.
`COc1ccc(F)c(F)c1-c1nccc(C(=O)Nc2cc(F)ccc2N2C[C@@H](N)C[C@H]2CO)n1` [Example 68, N-(2-((2S,4S)-4-Amino-2-(hydroxymethyl)pyrrolidin-1-yl)-5-fluorophenyl)-2-(2,3-difluoro-6-methoxyphenyl)pyrimidine-4-carboxamide] gave a Ki of less than 100 nM.
For `[2H]C([2H])([2H])Oc1ccc(C)c(F)c1-c1nccc(C(=O)Nc2cc(F)ccc2N2C[C@@H](N)C[C@H]2CO)n1` [Example 69, N-(2-((2S,4S)-4-Amino-2-(hydroxymethyl)pyrrolidin-1-yl)-5-fluorophenyl)-2-(2-fluoro-6-(methoxy-d3)-3-methylphenyl)pyrimidine-4-carboxamide], the Ki was less than 100 nM.
`COc1cc(C)cc(F)c1-c1nccc(C(=O)Nc2ccc(-c3cnccc3C#N)cc2N2C[C@@H](N)C[C@H]2CO)n1` [Example 70, N-(2-((2S,4S)-4-Amino-2-(hydroxymethyl)pyrrolidin-1-yl)-4-(4-cyanopyridin-3-yl)phenyl)-2-(2-fluoro-6-methoxy-4-methylphenyl)pyrimidine-4-carboxamide] showed a Ki of less than 100 nM.
`Cc1c(F)ccc(F)c1-c1nccc(C(=O)Nc2ccc(-c3cnccc3C#N)cc2N2C[C@@H](N)C[C@H]2CO)n1` [Example 71, N-(2-((2S,4S)-4-Amino-2-(hydroxymethyl)pyrrolidin-1-yl)-4-(4-cyanopyridin-3-yl)phenyl)-2-(3,6-difluoro-2-methylphenyl)pyrimidine-4-carboxamide] gave a Ki of less than 100 nM.
Work on `COc1ccc(F)c(F)c1-c1nccc(C(=O)Nc2ccc(-c3cnccc3C#N)cc2N2C[C@@H](N)C[C@H]2CO)n1` [Example 72, N-(2-((2S,4S)-4-Amino-2-(hydroxymethyl)pyrrolidin-1-yl)-4-(4-cyanopyridin-3-yl)phenyl)-2-(2,3-difluoro-6-methoxyphenyl)pyrimidine-4-carboxamide] yielded a Ki of less than 100 nM.
With `COc1c(F)ccc(F)c1-c1nccc(C(=O)Nc2ccc(-c3cnccc3C#N)cc2N2C[C@@H](N)C[C@H]2CO)n1` [Example 73, N-(2-((2S,4S)-4-Amino-2-(hydroxymethyl)pyrrolidin-1-yl)-4-(4-cyanopyridin-3-yl)phenyl)-2-(3,6-difluoro-2-methoxyphenyl)pyrimidine-4-carboxamide] the Ki was less than 100 nM.
Work on `[2H]C([2H])([2H])Oc1ccc(C#N)c(F)c1-c1nccc(C(=O)Nc2ccc(-c3cnccc3C#N)cc2N2C[C@@H](N)C[C@H]2CO)n1` [Example 74, N-(2-((2S,4S)-4-Amino-2-(hydroxymethyl)pyrrolidin-1-yl)-4-(4-cyanopyridin-3-yl)phenyl)-2-(3-cyano-2-fluoro-6-(methoxy-d3)phenyl)pyrimidine-4-carboxamide] yielded a Ki of less than 100 nM.
Work on `[2H]C([2H])([2H])Oc1c(F)ccc(F)c1-c1nccc(C(=O)Nc2ccc(-c3cnccc3C#N)cc2N2C[C@@H](N)C[C@H]2CO)n1` [Example 75, N-(2-((2S,4S)-4-Amino-2-(hydroxymethyl)pyrrolidin-1-yl)-4-(4-cyanopyridin-3-yl)phenyl)-2-(3,6-difluoro-2-(methoxy-d3)phenyl)pyrimidine-4-carboxamide] yielded a Ki of less than 100 nM.
Molecule `[2H]C([2H])([2H])Oc1ccc(F)c(F)c1-c1nccc(C(=O)Nc2ccc(-c3cnccc3C#N)cc2N2C[C@@H](N)C[C@H]2CO)n1` [Example 76, N-(2-((2S,4S)-4-Amino-2-(hydroxymethyl)pyrrolidin-1-yl)-4-(4-cyanopyridin-3-yl)phenyl)-2-(2,3-difluoro-6-(methoxy-d3)phenyl)pyrimidine-4-carboxamide] has a Ki of less than 100 nM.
Work on `COc1cccc(F)c1-c1nccc(C(=O)Nc2ccccc2C2CCNCC2)n1` [Example 78, 2-(2-Fluoro-6-methoxyphenyl)-N-(2-(piperidin-4-yl)phenyl)pyrimidine-4-carboxamide] yielded a Ki of 100 to 500 nM.
Molecule `COc1cccc(F)c1-c1nccc(C(=O)Nc2ccccc2C2CCCC(N)C2)n1` (stereo not shown) [Example 80, N-(2-(3-Aminocyclohexyl)phenyl)-2-(2-fluoro-6-methoxyphenyl)pyrimidine-4-carboxamide] has a Ki of less than 100 nM.
`COc1cccc(F)c1-c1nccc(C(=O)Nc2ccccc2C2CCC(N)C2)n1` (stereo not shown) [Example 81, N-(2-(3-aminocyclopentyl)phenyl)-2-(2-fluoro-6-methoxyphenyl)pyrimidine-4-carboxamide] showed a Ki of less than 100 nM.
